This is an account of results in patent publication US8697876B2, “Compositions and methods of synthesis of pyridinolypiperidine 5-HT1F agonists” (Colucid Pharmaceuticals, Inc., priority 2010, dated 2014).

A short description of the series: Solid-state properties of Form A (hygroscopicity). In kind it is physicochemical. Conditions: crystalline anhydrate.

Consider `CN1CCC(C(=O)c2cccc(NC(=O)c3c(F)cc(F)cc3F)n2)CC1.O=C(O)CCC(=O)O` [Form A, 2,4,6-Trifluoro-N-(6-(1-methylpiperidine-4-carbonyl)pyridine-2-yl)benzamide Hemisuccinate], for which the hygroscopicity entry is on record as “non-hygroscopic”.
